Two molecules from BindingDB's records for doi:10.1016/j.chembiol.2004.10.013 (University of Dundee, 2005) can be followed below.

*1 amine or outer side, *2 acyl side, *3 side chain or, on linkers, in order; H or OH if unused. Where a SMILES comes first, the peptide text is derived from it. Side-chain parts run from the residue outwards. [ ]: non-standard residue; d: D form. βAsp = O=C(O)[C@H](CC(=O)[*:2])N[*:1]; NMeF = CN[C@@H](Cc1ccccc1)C(=O)O; CO = O=C([*:1])[*:2]

Targets include Endochitinase B1 [A217G] (Aspergillus fumigatus, UniProt Q873X9, A217G); Endochitinase B1 [D175A] (Aspergillus fumigatus, UniProt Q873X9, D175A); Endochitinase B1 [E322A] (Aspergillus fumigatus, UniProt Q873X9, E322A); Endochitinase B1 [M243A] (Aspergillus fumigatus, UniProt Q873X9, M243A); Endochitinase B1 [R301K] (Aspergillus fumigatus, UniProt Q873X9, R301K); Endochitinase B1 [T138A] (Aspergillus fumigatus, UniProt Q873X9, T138A); Endochitinase B1 [Y245F] (Aspergillus fumigatus, UniProt Q873X9, Y245F).

Holding throughout (assay): Enzyme Inhibition Assay
The target of the next assay is T1, Chitinase B (Serratia marcescens, UniProt P11797).
T1 sequence (P11797 whole entry): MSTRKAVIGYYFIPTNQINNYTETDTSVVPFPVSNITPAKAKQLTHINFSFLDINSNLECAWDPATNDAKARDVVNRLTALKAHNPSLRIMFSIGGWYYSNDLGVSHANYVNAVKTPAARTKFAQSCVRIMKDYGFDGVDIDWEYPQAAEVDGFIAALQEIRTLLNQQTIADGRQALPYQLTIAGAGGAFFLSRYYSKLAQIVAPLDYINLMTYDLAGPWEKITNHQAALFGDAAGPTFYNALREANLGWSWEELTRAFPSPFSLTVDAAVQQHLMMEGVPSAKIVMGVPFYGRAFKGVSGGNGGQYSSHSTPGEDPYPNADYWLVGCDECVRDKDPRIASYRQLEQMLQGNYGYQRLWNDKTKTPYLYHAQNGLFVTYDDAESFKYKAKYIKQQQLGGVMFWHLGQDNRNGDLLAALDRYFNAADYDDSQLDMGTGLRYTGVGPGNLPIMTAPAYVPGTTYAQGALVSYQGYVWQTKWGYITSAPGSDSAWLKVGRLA
As to conditions: pH 5.5; 37 °C.

A further assay deals with Endochitinase B1 (Aspergillus fumigatus, UniProt Q873X9). As to conditions: for IC50: pH 5.5, 37 °C.

The term Ki denotes the dissociation constant of the complex between target and ligand, obtained from inhibition or displacement. Low readings indicate tighter binding, high ones weaker binding. By Kd is commonly meant the equilibrium constant for the complex coming apart. A lower Kd goes with a tighter complex. Usually IC50 stands for the midpoint of a concentration-inhibition curve. Higher therefore signals weaker potency in that assay. On Chitinase B, `CC(=O)NC(=N)NCCC[C@@H]1NC(=O)[C@H](CCCC(=O)O)NC(=O)[C@H](Cc2c[nH]cn2)N2C(=O)[C@H](C[C@H]2O)NC(=O)[C@H]2CCCN2C1=O` [4-[(1S,4R,10S,13S,16S,18R)-10-{3-[(acetamidomethanimidoyl)amino]propyl}-18-hydroxy-16-(1H-imidazol-4-ylmethyl)-3,9,12,15,20-pentaoxo-2,8,11,14,17-pentaazatricyclo[15.2.1.0^{4,8}]icosan-13-yl]butanoic acid] returned a Ki of 20 nM. The Kd was 810 nM at Endochitinase B1; 2840 nM at Endochitinase B1 [A217G]; 3600 nM on Endochitinase B1 [D175A]; 2930 nM on Endochitinase B1 [E322A]; 9390 nM on Endochitinase B1 [M243A]; 1020 nM at Endochitinase B1 [R301K]. Also, the Kd on Endochitinase B1 [T138A] came to 3040 nM; on Endochitinase B1 [Y245F] it was 5570 nM. Moreover, half-maximal inhibition on Endochitinase B1 (IC50) required 500 nM.

`CNC(=O)NC(=N)NCCC[C@@H]1NC(=O)[C@@H](C)NC(=O)C[C@@H](C(=O)O)NC(=O)C[C@@H](C(=O)O)NC(=O)[C@H](Cc2ccccc2)N(C)C1=O` [(2R,5S,8S,11S,15S)-8-benzyl-2,7-dimethyl-5-[3-({[(methylcarbamoyl)amino]methanimidoyl}amino)propyl]-3,6,9,13,17-pentaoxo-1,4,7,10,14-pentaazacycloheptadecane-11,15-dicarboxylic acid] (cyclo([NMeF][βAsp][βAsp][dA]R([CO-NHMe]))) gave a Ki on Chitinase B of 33000 nM. In addition, the dissociation constant Kd on Endochitinase B1 turned out to be 460 nM; at Endochitinase B1 [A217G], 4240 nM; on Endochitinase B1 [D175A] it was 3810 nM; at Endochitinase B1 [E322A], 1370 nM; at Endochitinase B1 [M243A], 1730 nM; on Endochitinase B1 [R301K] it was 2160 nM. In addition, at Endochitinase B1 [T138A], the equilibrium dissociation constant (Kd) is 1210 nM. The molecule also yielded an IC50 on Endochitinase B1 of 1100 nM.
